Read-outs that look alike come from different tables or passages of the source.
Columns and labels:
[1] = biological target: T1, hisCD44_HABD^20–169 (Homo sapiens, UniProt P16070); experiment: MST of HA oligosaccharides binding to hisCD44_HABD^20–169; settings: for % Binding affinity hisCD44_HABD^20–169: Table 6, relative to unmodified oligosaccharide of the same length, by MST
T1 construct: A novel construct consisting of residues 20 to 169 of human CD44 and an N-terminal six-histidine tag; made in house
Protocol: For hisCD44_HABD^20–169, interactions with HA oligosaccharides were assessed using MST. Protein (200 nM) was labeled with 5 μM red-Tris-NTA-650 dye following the manufacturer’s instructions in 10 mM Hepes, pH 7.4, 150 mM NaCl, 0.05% (v/v) Tween-20 (interaction buffer). Stock solutions of HA oligosaccharides (5 mM in interaction buffer) were serially diluted (1:1 in interaction buffer) 16 times before each concentration was mixed with an equal volume of labeled protein (10 nM final concentration hisCD44_HABD^20–169). Samples were loaded into standard glass capillaries (NanoTemper) and thermophoresis measured at 25 °C (with active temperature control) using a Monolith NT.115pico instrument (NanoTemper) running NT Control software (version 1.0.1). All experiments were performed in triplicate and data analyzed with the “KD fit model” in the NT Analysis software (version 2.0.2).

[2] = biological target: T2, Link_TSG6 (Homo sapiens, UniProt P98066); experiment: ITC of HA oligosaccharides binding to Link_TSG6; settings: for N / ΔG / ΔH / −TΔS / Kd: ITC, 25 °C, 5 mM MES pH 6.0, mean ± SEM; for N: 0.029 mM Link_TSG6, 0.29 mM oligosaccharide; for N / Kd: four titrations; for Kd: read-out: KD; for % Binding affinity Link_TSG6: Table 6, relative to unmodified oligosaccharide of the same length, by ITC
T2 construct: made in house
Protocol: ITC experiments were performed using a MicroCal PEAQ-ITC instrument (Malvern Instruments). Oligosaccharide stock solutions were prepared at 0.29 mM (in 5 mM MES, pH 6.0) and injected (18 × 2 μl with 120 s spacing between injections) into the cell containing ∼200 μl Link_TSG6 (0.029 mM) in matched buffer at 25 °C. Data were fit to a one site binding model, after subtracting the heats from the last three injections to account for heat of dilution of the oligosaccharide into buffer. Each oligosaccharide was analyzed in four independently performed ITC experiments.

[3] = biological target: T3, recombinant human TSG-6 (Homo sapiens, UniProt P19827+P98066); experiment: In vitro HC-transfer assay (IαI + rhTSG-6, Western blot anti-HC1); assay type: biochemical; settings: 15 μM HA, 1.8 μM IαI, rhTSG-6, 2 h at 37 °C; for Substrate for HC transfer: Table 6
T3 construct: TSG-6–mediated HC-transfer assays (using full-length TSG6); purchased R&D Systems
Protocol: Covalent transfer of HC from IαI onto unmodified and chemically modified HA oligosaccharides was analyzed using the assay described previously ([26]). All reactions were performed using a buffer of 20 mM Hepes, pH 7.5, 150 mM NaCl, and 5 mM MgCl2. In a “standard” assay, HA oligosaccharides were at 15 μM, human IαI ([97]) 1.8 at μM (based on a molecular weight of 180 kDa), and recombinant human TSG-6 (R&D Systems) at 2.8 μM (based on a molecular weight of 35 kDa). Reaction mixtures were analyzed by SDS-PAGE using 4 to 12% bis-tris polyacrylamide gels (Invitrogen). For Western blot analysis, proteins were transferred onto nitrocellulose membrane (GE Healthcare) and incubated with antisera against HC1 (CP7, 1:10,000; ([98])). Bound primary antibody was detected using goat-anti-rabbit IgG conjugated to IR dye (LI-COR Biosciences) and blots imaged using an Odyssey Clx near-IR fluorescence imaging system (LICOR Biosciences).

[4] = tested on: Link_TSG6; parameters: method as in PMID 24403066; settings: cited from earlier work
[5] = Table 5, MST, 10 mM Hepes pH 7.5, 150 mM NaCl, 0.05% Tween-20, 25 °C, mean ± SD, three titrations, read-out: KD

T3 sequence (P98066 18-277): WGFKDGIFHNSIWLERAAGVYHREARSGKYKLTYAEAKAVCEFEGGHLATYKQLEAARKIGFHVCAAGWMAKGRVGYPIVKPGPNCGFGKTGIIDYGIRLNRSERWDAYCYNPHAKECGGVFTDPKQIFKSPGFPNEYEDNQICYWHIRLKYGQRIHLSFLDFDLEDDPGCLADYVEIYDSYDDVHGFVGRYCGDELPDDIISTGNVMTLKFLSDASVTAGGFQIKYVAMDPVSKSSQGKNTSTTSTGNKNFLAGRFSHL
T3 sequence (P19827 35-672 limits assumed): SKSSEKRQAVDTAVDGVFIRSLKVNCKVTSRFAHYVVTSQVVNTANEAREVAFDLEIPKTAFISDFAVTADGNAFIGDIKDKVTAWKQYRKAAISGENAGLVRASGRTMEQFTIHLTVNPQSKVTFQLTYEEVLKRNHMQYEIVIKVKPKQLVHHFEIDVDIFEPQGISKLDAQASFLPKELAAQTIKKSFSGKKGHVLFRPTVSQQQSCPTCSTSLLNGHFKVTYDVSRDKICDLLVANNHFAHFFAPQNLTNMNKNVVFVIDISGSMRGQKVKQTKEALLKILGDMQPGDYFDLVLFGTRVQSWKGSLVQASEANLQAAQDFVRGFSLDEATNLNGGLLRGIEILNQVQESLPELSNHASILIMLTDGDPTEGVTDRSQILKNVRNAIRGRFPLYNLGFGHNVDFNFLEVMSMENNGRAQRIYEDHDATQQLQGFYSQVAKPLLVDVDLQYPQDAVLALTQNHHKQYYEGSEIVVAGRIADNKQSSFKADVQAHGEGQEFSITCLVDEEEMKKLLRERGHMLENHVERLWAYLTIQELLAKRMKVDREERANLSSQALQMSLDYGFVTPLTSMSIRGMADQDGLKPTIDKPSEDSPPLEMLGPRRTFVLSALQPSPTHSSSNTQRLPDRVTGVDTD
T2 sequence (P98066 36-129 limits assumed): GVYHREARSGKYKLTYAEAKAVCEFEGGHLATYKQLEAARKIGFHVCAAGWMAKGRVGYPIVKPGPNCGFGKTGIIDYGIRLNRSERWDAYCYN
T1 sequence (P16070 20-169): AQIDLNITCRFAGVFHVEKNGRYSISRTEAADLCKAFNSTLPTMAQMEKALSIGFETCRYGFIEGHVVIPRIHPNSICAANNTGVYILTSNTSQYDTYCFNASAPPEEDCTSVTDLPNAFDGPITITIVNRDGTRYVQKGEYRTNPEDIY

CC(=O)N[C@H]1[C@H](O[C@H]2[C@H](O)[C@@H](O)[C@H](O[C@H]3[C@H](O)[C@@H](CO)O[C@@H](O[C@H]4[C@H](O)[C@@H](O)[C@H](O[C@H]5[C@H](O)[C@@H](CO)O[C@@H](O[C@H]6[C@H](O)[C@@H](O)[C@H](O[C@H]7[C@H](O)[C@@H](CO)OC(O)[C@@H]7NC(C)=O)O[C@@H]6C(=O)O)[C@@H]5NC(C)=O)O[C@@H]4C(=O)O)[C@@H]3NC(C)=O)O[C@@H]2C(=O)O)O[C@H](CO)[C@@H](O)[C@@H]1O[C@@H]1O[C@H](C(=O)O)[C@@H](O)[C@H](O)[C@H]1O (stereo partly drawn) [HA8^AN, reference compound]
Kd ([1]; MST, read-out: KD for hisCD44_HABD^20–169): ~50 µM
% HAn^AN: percentage of binding affinity (KB) compared to the unmodified oligosaccharide of the same length ([1]; Table 2, MST): 100%
Kd ([1]; Table 2, MST, 10 mM Hepes pH 7.5, 150 mM NaCl, 0.05% Tween-20, 25 °C, mean (±SD), three titrations, read-out: KD): 51 µM
% HAx^AN: percentage of binding affinity (KB) compared to the unmodified oligosaccharide of the same length ([1]; Table 5, MST): 100%
Kd [1, 5]: 51 ± 5 µM
% Binding affinity hisCD44_HABD^20–169 [1]: 100%
N ([2]; Table 1): 0.98 ± 0.01
ΔG ([2]; Table 1): -8.89 ± 0.03 kcal/mol
ΔH ([2]; Table 1): -7.26 ± 0.20 kcal/mol
−TΔS ([2]; Table 1): -1.63 ± 0.24 kcal/mol
Kd ([2]; Table 1): 0.31 ± 0.02 µM
−TΔS ([2]; Table 4): −1.63 ± 0.24 kcal•mol^a1
% Binding affinity Link_TSG6 [2]: 100%
Substrate for HC transfer [3]: Yes
Activity as substrate for HC transfer (text) ([3]; Western blot anti-HC1): acted as substrates
Fold greater affinity for Link_TSG6 (compared to HA8^AN) [4]: 1.9 fold

CC(=O)N[C@H]1[C@H](O[C@H]2[C@H](O)[C@@H](O)[C@H](O[C@H]3[C@H](O)[C@@H](CO)O[C@@H](O[C@H]4[C@H](O)[C@@H](O)[C@H](O[C@H]5[C@H](O)[C@@H](CO)O[C@@H](O[C@H]6[C@H](O)[C@@H](O)[C@H](O[C@@H]([C@H](O)[C@H](O)CO)[C@H](CNc7cccc8c7CCC8)NC(C)=O)O[C@@H]6C(=O)O)[C@@H]5NC(C)=O)O[C@@H]4C(=O)O)[C@@H]3NC(C)=O)O[C@@H]2C(=O)O)O[C@H](CO)[C@@H](O)[C@@H]1O[C@@H]1O[C@H](C(=O)O)[C@@H](O)[C@H](O)[C@H]1O [HA8-4AI]
% of binding to hisCD44_HABD^20–169 compared to the unmodified oligosaccharide of the same length ([1]; MST): 37%
% HAx^AN: percentage of binding affinity (KB) compared to the unmodified oligosaccharide of the same length ([1]; Table 5, MST): 37%
Kd [1, 5]: 139 ± 43 µM
% Binding affinity hisCD44_HABD^20–169 [1]: 37%
N ([2]; Table 4): 1.01 ± 0.02
ΔG ([2]; Table 4): -9.15 ± 0.16 kcal/mol
ΔH ([2]; Table 4): -7.02 ± 0.40 kcal/mol
−TΔS ([2]; Table 4): −2.13 ± 0.53 kcal•mol^a1
Kd ([2]; Table 4): 0.22 ± 0.05 µM
% Binding affinity Link_TSG6 [2]: 141%
Substrate for HC transfer [3]: Yes

Reference: publication PMC11460632, “Chemical modification of hyaluronan oligosaccharides differentially modulates hyaluronan–hyaladherin interactions” (The Journal of Biological Chemistry, 2024)
